Results on ten molecules are retold here after US7462630B2, “Diarylalkene derivatives and novel diarylalkane derivatives” (Ajinomoto Co., Inc., priority 2001, dated 2008).

Molecules are shown by their SMILES.

One assay has as its target T1, N-type calcium channel (Homo sapiens, UniProt Q00975).
T1 construct: host or cells: IMR-32 human neuroblastoma cells, differentiated with dibutyl cAMP and 5-bromodeoxyuridine
As to the kind of experiment: Antagonistic activity on N-type calcium channel (fluorescence dye method, KCl-stimulated intracellular calcium change in IMR-32 cells with 1 μM Nifedipine). It is filed as cell-based. To be noted: 10 μM test compound, 60 mM KCl stimulation, read-out: Antagonistic activity on N-type calcium channels at 10 μM inhibition rate (%). How it is done:
Human neuroblastoma cells IMR-32 were obtained from ATCC (American Type Culture Collection). The medium used was a Phenol Red-free Eagle minimum essential medium containing earle's salts (GIBCO) supplemented with 2 mM of L-glutamine (GIBCO), 1 mM of sodium pyruvate (pH 6.5) (GIBCO), antibiotic/antimycotic mixture (GIBCO) and 10% fetal calf serum (Cell Culture Technologies). Three ml of 1×10^5 cells/ml IMR-32 cells were spread on the glass bottom of a dish (Iwaki Glsss Co., Ltd.) having a diameter of 35 mm which had been treated with poly-L-lysin (SIGMA) and collagen (COLLAGEN VITROGEN 100; Collagen Co.). After the culture for 1 day, 1 mM (final concentration) of dibutyl cAMP and 2.5 μM (final concentration) of 5-bromodeoxyuridine (SIGMA) were added. After the culture for additional 10 to 14 days, the cells were subjected to the activity determination.
The medium for IMR-32 cells thus prepared was replaced with 1 ml of Phenol Red-free Eale minimum essential medium (GIBCO) containing 2.5 μM fura-2/AM (Dojin Kagaku, Co.) and earle's salts supplement, and the incubation was conducted at 37° C. for 30 minutes. Then the medium was replaced with a recording medium (20 mM of HEPES-KOH, 115 mM of NaCl, 5.4 mM of KCl, 0.8 mM of MgCl2, 1.8 mM of CaCl2 and 13.8 mM of D-glucose). Antagonistic activity on N-type calcium channel was determined and analyzed using a fluorescence microscope (Nikon Corporation) and an image analysis device ARGUS 50 (Hamamatsu Photonics). In particular, a recording medium (20 mM of HEPES-KOH, 115 mM of NaCl, 5.4 mM of KCl, 0.8 mM of MgCl2, 1.8 mM of CaCl2 and 13.8 mM of D-glucose) containing 1 μM of Nifedipine was given to the cells by reflux by a Y-tube method for 2 minutes. Then a stimulating agent containing 60 mM of potassium chloride was rapidly given by the Y-tube method. The calcium concentration change in the cells in this step was shown as the N-type calcium channel activity. Then stimulating agents containing 60 mM of potassium chloride and 0.1, 1 or 10 μM of the test compound were successively and rapidly given to the cells by the Y-tube method to determine the change in the intracellular calcium concentration. The antagonistic activity on N-type calcium channel was calculated from the inhibition rate (%) at a concentration of 10 μM.

A further assay deals with T2, L-type calcium channel (Rattus norvegicus, UniProt P22002).
T2 construct: relaxation response against the KCl-induced contraction of isolated rat thoracic aorta was employed; from tissue; host or cells: endothelium-denuded thoracic aorta rings of Wistar rat
As to the kind of experiment: Antagonistic activity on L-type calcium channel (relaxation response against KCl-induced contraction of isolated rat thoracic aorta). Particulars: read-out: Antagonistic action on L-type calcium channels pIC50 (converted). How it is done: The antagonistic activity of the new diarylalkene derivatives and diarylalkane derivatives of the present invention to inhibit L-type calcium channel was determined by the following method in which the relaxation response against the KCl-induced contraction of isolated rat thoracic aorta was employed.
The slips of thoracic aorta isolated from a Wistar rat were used. The aorta was cut to obtain ring-shaped samples having a width of about 3 mm. The endothelial cells of the samples were mechanically removed. The samples were suspended in a strain gage in Tyrode's solution (158.3 mM of NaCl, 4.0 mM of KCl, 1.05 mM of MgCl2, 0.42 mM of NaH2PO4, 10 mM of NaHCO3, 2 mM of CaCl2 and 5 mM of glucose) in which a gaseous mixture of O2 (95%) and CO2 (5%) was introduced. A static tension of 2 g was applied thereto. The tension of the blood vessel was amplified with a transducer and a tension amplifier (EF-601G; Nihon Koden Corporation) and recorded with a multi-pen recorder (Rikadenki Kogyo Co., Ltd.). The experiments were conducted at 37° C.
After the tension had been stabilized, the nutrient solution in the sample tank was replaced with High K^+ Tyrode's solution (112.3 mM of NaCl, 50 mM of KCl, 1.05 mM of MgCl2, 0.42 mM of NaH2PO4, 10 mM of NaHCO3, 2 mM of CaCl2 and 5 mM of glucose) to conduct the contraction reaction. Thirty minutes after, the solution in the sample tank was replaced with the normal Tyrode's solution. The solution in the sample tank was again replaced with the High K^+ Tyrode's solution and the contraction reaction was observed. After attaining the maximum contraction reaction, the test compound was cumulatively added at intervals of 90 minutes to attain concentrations of 10^−9, 10^−8, 10^−7 and 10^−6 M. The inhibitory rate of the test compound against the maximum contraction response was employed as the index of the antagonistic activity on L-type calcium channels.
The value of pIC50 indicates the antagonistic activity of the test compound, i. e. the negative logarithm of the concentration of the test compound necessitated for the 50% inhibition.

T1 sequence (Q00975 whole entry): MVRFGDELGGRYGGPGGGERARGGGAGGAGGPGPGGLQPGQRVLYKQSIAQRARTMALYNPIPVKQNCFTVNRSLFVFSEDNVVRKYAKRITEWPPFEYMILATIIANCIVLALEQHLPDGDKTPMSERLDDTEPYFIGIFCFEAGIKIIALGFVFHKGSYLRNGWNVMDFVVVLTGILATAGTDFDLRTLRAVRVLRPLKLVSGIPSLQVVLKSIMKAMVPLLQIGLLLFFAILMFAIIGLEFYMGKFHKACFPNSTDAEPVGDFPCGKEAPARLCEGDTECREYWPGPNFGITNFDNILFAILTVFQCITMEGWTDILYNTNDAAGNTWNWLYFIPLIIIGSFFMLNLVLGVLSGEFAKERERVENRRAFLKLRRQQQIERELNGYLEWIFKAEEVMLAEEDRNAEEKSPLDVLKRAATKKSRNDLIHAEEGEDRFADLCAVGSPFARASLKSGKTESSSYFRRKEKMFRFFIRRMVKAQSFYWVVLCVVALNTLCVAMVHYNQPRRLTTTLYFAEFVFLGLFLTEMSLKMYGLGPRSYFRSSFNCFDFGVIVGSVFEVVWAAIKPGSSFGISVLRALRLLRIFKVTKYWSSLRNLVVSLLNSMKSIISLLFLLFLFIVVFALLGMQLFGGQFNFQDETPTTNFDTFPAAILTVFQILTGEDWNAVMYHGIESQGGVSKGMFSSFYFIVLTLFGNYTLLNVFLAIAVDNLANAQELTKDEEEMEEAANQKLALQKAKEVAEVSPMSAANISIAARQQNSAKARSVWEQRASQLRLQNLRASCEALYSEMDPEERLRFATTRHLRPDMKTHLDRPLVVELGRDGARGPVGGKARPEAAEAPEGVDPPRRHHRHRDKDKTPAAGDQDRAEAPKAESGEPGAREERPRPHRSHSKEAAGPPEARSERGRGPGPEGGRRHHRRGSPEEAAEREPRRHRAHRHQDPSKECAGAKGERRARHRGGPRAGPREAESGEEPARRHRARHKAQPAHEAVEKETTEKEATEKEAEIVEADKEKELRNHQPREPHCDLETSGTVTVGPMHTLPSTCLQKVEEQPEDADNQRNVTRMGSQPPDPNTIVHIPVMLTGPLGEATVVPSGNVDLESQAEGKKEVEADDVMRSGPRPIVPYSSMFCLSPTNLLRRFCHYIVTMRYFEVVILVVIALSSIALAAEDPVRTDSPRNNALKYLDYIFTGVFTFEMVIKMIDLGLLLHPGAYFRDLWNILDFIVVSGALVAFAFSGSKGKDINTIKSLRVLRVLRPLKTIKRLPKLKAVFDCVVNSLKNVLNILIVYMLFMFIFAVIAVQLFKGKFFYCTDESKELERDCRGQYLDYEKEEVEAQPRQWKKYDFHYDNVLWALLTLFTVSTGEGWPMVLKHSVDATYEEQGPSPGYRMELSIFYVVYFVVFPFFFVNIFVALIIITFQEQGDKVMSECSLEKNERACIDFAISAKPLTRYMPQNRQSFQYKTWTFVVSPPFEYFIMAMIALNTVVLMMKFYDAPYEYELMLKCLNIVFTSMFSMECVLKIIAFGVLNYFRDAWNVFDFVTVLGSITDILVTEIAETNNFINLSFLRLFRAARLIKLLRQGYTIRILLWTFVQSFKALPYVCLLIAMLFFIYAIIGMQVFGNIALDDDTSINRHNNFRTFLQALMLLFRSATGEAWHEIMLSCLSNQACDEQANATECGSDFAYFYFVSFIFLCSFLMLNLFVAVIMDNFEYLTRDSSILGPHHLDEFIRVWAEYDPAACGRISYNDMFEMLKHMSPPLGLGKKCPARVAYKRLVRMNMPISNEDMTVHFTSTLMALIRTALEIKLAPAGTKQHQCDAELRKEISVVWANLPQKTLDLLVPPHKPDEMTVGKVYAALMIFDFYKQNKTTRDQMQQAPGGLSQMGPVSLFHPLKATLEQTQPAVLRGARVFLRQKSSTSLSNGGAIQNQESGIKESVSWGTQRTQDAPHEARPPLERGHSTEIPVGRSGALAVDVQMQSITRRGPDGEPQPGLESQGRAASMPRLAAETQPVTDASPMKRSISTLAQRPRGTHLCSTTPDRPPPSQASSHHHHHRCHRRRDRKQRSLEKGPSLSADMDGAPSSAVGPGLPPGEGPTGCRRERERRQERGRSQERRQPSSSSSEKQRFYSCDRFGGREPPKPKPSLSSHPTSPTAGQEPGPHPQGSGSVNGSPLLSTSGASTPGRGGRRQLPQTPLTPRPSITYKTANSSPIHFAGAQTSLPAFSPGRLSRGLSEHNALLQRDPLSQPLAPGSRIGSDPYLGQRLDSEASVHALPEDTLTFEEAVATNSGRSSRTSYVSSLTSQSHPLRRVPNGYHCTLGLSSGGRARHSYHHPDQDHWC
T1 sequence (P54284 whole entry partner): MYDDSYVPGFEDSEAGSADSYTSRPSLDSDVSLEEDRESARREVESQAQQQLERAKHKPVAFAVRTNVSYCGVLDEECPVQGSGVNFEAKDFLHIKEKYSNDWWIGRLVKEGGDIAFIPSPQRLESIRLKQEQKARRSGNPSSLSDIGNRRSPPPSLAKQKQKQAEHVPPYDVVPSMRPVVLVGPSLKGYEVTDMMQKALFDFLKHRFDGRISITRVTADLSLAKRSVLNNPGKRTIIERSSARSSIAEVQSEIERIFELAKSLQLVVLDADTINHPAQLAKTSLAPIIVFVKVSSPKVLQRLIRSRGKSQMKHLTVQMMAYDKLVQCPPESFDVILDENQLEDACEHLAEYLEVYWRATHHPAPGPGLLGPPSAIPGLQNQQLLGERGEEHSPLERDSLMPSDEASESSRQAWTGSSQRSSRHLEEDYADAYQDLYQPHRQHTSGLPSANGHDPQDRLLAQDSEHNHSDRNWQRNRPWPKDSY
T1 sequence (P54289 25-956 partner limits assumed): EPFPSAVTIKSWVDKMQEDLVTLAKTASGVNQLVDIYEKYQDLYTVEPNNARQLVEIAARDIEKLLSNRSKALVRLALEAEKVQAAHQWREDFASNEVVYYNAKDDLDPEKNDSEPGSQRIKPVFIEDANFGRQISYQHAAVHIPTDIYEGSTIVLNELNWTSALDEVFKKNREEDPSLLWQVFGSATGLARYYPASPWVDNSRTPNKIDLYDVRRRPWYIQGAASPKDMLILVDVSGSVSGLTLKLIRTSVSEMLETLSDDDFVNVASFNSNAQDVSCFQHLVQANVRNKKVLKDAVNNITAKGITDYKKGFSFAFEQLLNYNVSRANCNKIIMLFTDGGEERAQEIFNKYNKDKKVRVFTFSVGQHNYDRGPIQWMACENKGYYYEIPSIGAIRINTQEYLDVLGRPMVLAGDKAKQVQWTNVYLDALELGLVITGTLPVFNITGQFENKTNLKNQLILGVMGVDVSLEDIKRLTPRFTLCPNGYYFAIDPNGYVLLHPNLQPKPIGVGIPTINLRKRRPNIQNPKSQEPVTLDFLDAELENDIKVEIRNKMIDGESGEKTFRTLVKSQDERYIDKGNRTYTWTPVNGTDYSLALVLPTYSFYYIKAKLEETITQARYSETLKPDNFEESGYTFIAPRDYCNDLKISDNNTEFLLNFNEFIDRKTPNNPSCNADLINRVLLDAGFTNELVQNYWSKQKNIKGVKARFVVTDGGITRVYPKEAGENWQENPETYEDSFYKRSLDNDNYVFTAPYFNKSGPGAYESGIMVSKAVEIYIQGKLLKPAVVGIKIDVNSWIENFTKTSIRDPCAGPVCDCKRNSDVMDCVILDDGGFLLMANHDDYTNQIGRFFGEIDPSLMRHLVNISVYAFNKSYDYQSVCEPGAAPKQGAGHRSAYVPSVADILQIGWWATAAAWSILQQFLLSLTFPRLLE
T1 sequence (P54289 957-1103 partner limits assumed): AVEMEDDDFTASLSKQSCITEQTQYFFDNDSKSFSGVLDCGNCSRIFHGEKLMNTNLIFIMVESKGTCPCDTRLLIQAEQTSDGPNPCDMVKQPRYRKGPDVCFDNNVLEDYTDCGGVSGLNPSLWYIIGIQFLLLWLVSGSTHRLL

As a reminder, the inhibition is the drop in the measured response relative to a control, in per cent. Turning to `CC(C)(C)OC(=O)NCC(=O)N1CCC(=C2c3ccccc3C=Cc3ccccc32)CC1` [Example 1, t-butyl 2-[4-(5H-dibenzo[a,d][7]annulen-5-ylidene)-1-piperidinyl]-2-oxoethylcarbamate], on N-type calcium channel, the inhibition at 10 µM worked out at 67%. The IC50 on L-type calcium channel was 1000 nM.

Turning to `CC(C)(C)NC(=O)CCC(=O)N1CCC(=C2c3ccccc3C=Cc3ccccc32)CC1` [Example 9, N-(t-butyl)-4-[4-(5H-dibenzo[a,d][7]annulen-5-ylidene)-1-piperidinyl]-4-oxobutanamide], at N-type calcium channel, the inhibition at 10 µM worked out at 83%. Further, on L-type calcium channel, the IC50 was 501 nM.

`CC(C)(C)OC(=O)NCC(=O)N1CCC(=C2c3ccccc3CCc3ccccc32)CC1` [Example 16, t-butyl 2-[4(10,11-dihydro-5H-dibenzo[a,d][7]annulen-5-ylidene)-1-piperidinyl]-2-oxoethyl carbamate]: at N-type calcium channel, the inhibition at 10 µM was determined as 75%. On L-type calcium channel, the IC50 was 1260 nM.

`CC(C)(C)OC(=O)NCC(=O)N1CCC(=C2c3ccccc3CSc3ccccc32)CC1` [Example 24, t-butyl 2-(4-dibenzo[b,e]thiepin-11(6H)-ylidene-1-piperidinyl)-2-oxoethylcarbamate]: the inhibition at 10 µM on N-type calcium channel amounted to 78%. In addition, the IC50 on L-type calcium channel was 1000 nM.

Turning to `CC(C)(C)OC(=O)NCCCNC(=O)C=C1c2ccccc2C=Cc2ccccc21` [Example 41, t-butyl 3-[(5H-dibenzo[a,d][7]annulen-5-ylidenacetyl)amino]-propylcarbamate], at N-type calcium channel, the inhibition at 10 µM is 76%. At L-type calcium channel, the IC50 was 1260 nM.

On to `CC(C)(C)OC(=O)N[C@@H](CO)CC(=O)N1CCC(=C2c3ccccc3C=Cc3ccccc32)CC1` [Example 68, (R)-t-butyl 3-[4-(5H-dibenzo[a,d][7]annulen-5-ylidene)-1-piperidinyl]-1-(hydroxymethyl)-3-oxopropylcarbamate], for which the inhibition at 10 µM at N-type calcium channel was 82%. For the same molecule, at L-type calcium channel, the IC50 was 398 nM.

For `CC(C)(C)C(=O)N[C@@H](CO)CCC(=O)N1CCC(=C2c3ccccc3C=Cc3ccccc32)CC1` [Example 72, (R)-N-[4-[4-(5H-dibenzo[a,d][7]annulen-5-ylidene)-1-piperidinyl]-1-(hydroxylmethyl)-4-oxobutyl]-2,2-dimethylpropanamide], the inhibition at 10 µM on N-type calcium channel worked out at 81%. The IC50 on L-type calcium channel is 794 nM.

As to `CCOC(=O)N[C@@H](CO)CC(=O)N1CCC(=C2c3ccccc3C=Cc3ccccc32)CC1` [Example 73, (R)-ethyl3-[4-(5H-dibenzo[a,d][7]annulen-5-ylidene)-1-piperidinyl]-1-(hydroxymethyl)-3-oxopropylcarbamate], the inhibition at 10 µM on N-type calcium channel worked out at 75%. In addition, the IC50 at L-type calcium channel was 2000 nM.

`CC(C)(C)OC(=O)N[C@@H](CO)CC(=O)N1CCC(=C2c3ccccc3Sc3ccccc32)CC1` [Example 76, tert-butyl (1R)-1-(hydroxymethyl)-3-oxo-3-[4-(9H-thioxanthen-9-ylidene)-1-piperidinyl]propylcarbamate]: the inhibition at 10 µM on N-type calcium channel was determined as 85%. On L-type calcium channel, the IC50 is 794 nM.

On to `CC(C)(C)C(=O)N[C@H](CO)CCC(=O)N1CCC(=C2c3ccccc3CCc3ccccc32)CC1` [Example 78], for which, at N-type calcium channel, the inhibition at 10 µM was determined as 84%. Further, the IC50 at L-type calcium channel was 2510 nM.
